Laboratory results taken from patent US10428054B2, “Kynurenine-3-monooxygenase inhibitors, pharmaceutical compositions, and methods of use thereof” (CHDI Foundation, Inc., priority 2013, dated 2019).
Where two headings read alike, the source gives them in different places.

Target: T1, KMO mouse enzyme (Mus musculus, UniProt Q91WN4)
T1 construct: KMO enzyme prepared at Evotec from mouse liver (4-6 weeks old) via mitochondria isolation; from tissue; host or cells: mouse liver (4-6 weeks old), mitochondria isolation, prepared at Evotec
T1 sequence (Q91WN4 whole entry): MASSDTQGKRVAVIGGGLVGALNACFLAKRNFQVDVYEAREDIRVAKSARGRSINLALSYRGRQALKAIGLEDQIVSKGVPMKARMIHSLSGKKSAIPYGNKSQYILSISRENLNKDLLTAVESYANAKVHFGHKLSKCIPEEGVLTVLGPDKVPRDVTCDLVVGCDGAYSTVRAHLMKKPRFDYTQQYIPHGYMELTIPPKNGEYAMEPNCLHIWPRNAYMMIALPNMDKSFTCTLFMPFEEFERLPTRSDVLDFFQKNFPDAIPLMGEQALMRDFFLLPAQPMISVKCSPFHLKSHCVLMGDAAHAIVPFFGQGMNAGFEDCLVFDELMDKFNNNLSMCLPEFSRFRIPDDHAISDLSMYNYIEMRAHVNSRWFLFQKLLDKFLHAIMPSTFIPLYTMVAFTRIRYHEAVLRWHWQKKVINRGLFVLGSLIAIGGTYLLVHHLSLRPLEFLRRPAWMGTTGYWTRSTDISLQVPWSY
Assay: KMO enzyme assay: L-Kynurenine hydroxylation to 3-Hydroxy-Kynurenine by LC/MS (protocols substantially similar to Biology Example 3)
Assay type: biochemical
Settings: for inhibition at 10 µM: compound at 10 uM (stated in cell; head says 30 μM)
Protocol: A method of monitoring L-Kynurenine (KYN) hydroxylation to form 3-Hydroxy-Kynurenine (30H-KYN) by LC/MS is described. Product is quantified by multiple reaction monitoring (MRM method).
• Compound: Stock concentrations: 10 mM in 100% DMSO • Enzyme: KMO enzyme prepared at Evotec from mouse liver (4-6 weeks old) via mitochondria isolation as described in the literature • Substrate: L-Kynurenine (Sigma: Cat# K3750, stock concentration: 10 mM in 100 mM potassium phosphate buffer, pH 7.4) Assay Conditions: • Buffer: 100 mM potassium phosphate, pH 7.4, 200 μM NADPH, 0.4 U/ml G6P-DH (Glucose 6-phosphate Dehydrogenase), 3 mM G6P (D-Glucose 6-phosphate) • Assay Volume: 40 μl • Plate Format: 384 well plate, transparent (Matrix) • Read-Out: product (30H-KYN) quantification using product specific MRM • Reader: LC/MS/MS Assay Protocol: • prepare serial dilution (factor 3) of compound in 100% DMSO (top concentration=10 mM, 100% DMSO) • [8 points: 10 mM; 3.33 mM; 1.11 mM; 0.37 mM; 0.12 mM; 0.04 mM; 0.0137 mM; 0.0045 mM, 0.0015 mM] • prepare […] concentrated solution of each compound concentration (top concentration 300 μM, 3% DMSO) in assay buffer • [concentrations: 300 μM; 100 μM; 33.3 μM; 11.1 μM; 3.70 μM; 1.23 μM; 0.41 μM; 0.137 μM] • prepare substrate (10 mM) at concentration of 1 mM in assay buffer • assay mix: 4 μl compound/well of each concentration+24 μl assaybuffer/well+8 μl KMO mouse enzyme+4 μl 1 mM substrate (final concentration=100 μM) • [final compound top concentration: 30 μM; 0.3% DMSO] • [final compound bottom concentration: 0.0137 μM; 0.3% DMSO] • positive control: 4 μl […] FCE28833 in assay buffer, 0.5% DMSO [final assay concentration=50 μM]+24 μl assaybuffer/well+8 μl KMO mouse enzyme+4 μl 1 mM substrate[final concentration=100 μM] • negative control: 28 μl assay buffer/well+8 μl KMO mouse enzyme+4 μl 1 mM substrate [final concentration=100 μM] • incubate 40 min at RT • add 40 μl/well 10% trichloro acetic acid in water to stop the assay and precipitate protein • centrifuge plate for 3 min at 4000 rpm • product detection by LC/MS (injection of 20 μl/well, 2 fold overfill of the 10 μl sample loop) Data Analysis:
IC50's are calculated using automated fitting algorithm (A+ Analysis).
Using the assay protocols substantially similar to those of Biology Example 3, the following compounds were tested.

[1] = compound at 30 μM, Biology Example 4 table, read-out: Percent Inhibition at 30 μM
[2] = compound at 30 μM, tables of Methods 1-6, read-out: % Inhibition at 30 μM

Row | SMILES | inhibition at 30 µM [1] | inhibition at 30 µM [2] | inhibition at 10 µM (Biology Example 4 table, read-out: Percent Inhibition (at 10 uM)) | inhibition at 10 µM (table of Method 2, read-out: % Inhibition (at 10 uM)) | % Inhibition at 30 μM (compound at 30 μM, tables of Methods 1-6, 30 µM)
1 | O=C(O)[C@H]1C[C@@H]1C(=O)c1ccc(Cl)s1 [Example 1, Method 1, (1S,2S)-2-[(5-Chlorothiophen-2-yl)carbonyl]cyclopropane-1-carboxylic acid] | 101% | 101% |  |  | 
2 | O=C(O)[C@H]1C[C@@H]1C(=O)c1nccs1 [Example 1, Method 2, (1S,2S)-2-[(1,3-Thiazol-2-yl)carbonyl]cyclopropane-1-carboxylic acid] |  |  | 28.7% | 28.7% | 
3 | Cc1nc2ccc(C(=O)[C@H]3C[C@@H]3C(=O)O)cc2s1 [Example 1, Method 3, (1S,2S)-2-(2-Methyl-1,3-benzothiazole-6-carbonyl)cyclopropane-1-carboxylic acid] | 74.5% |  |  |  | 98.3%
4 | O=C(O)[C@H]1C[C@@H]1C(=O)c1cc(Cl)c2occc2c1 [Example 1, Method 4, (1S,2S)-2-(7-Chloro-1-benzofuran-5-carbonyl)cyclopropane-1-carboxylic acid] | 100% | 100% |  |  | 
5 | Cc1cc2cc(C(=O)[C@H]3C[C@@H]3C(=O)O)cc(Cl)c2o1 [Example 1, Method 6, (1S,2S)-2-(7-chloro-2-methyl-1-benzofuran-5-carbonyl)cyclopropane-1-carboxylic acid] |  | 102% |  |  | 
6 | O=C(O)[C@H]1C[C@@H]1C(=O)c1ccsc1 [Example 2, Method 1, (1S,2S)-2-[(Thiophen-3-yl)carbonyl]cyclopropane-1-carboxylic acid] | 83.2% | 83.2% |  |  | 
7 | O=C(O)[C@H]1C[C@@H]1C(=O)c1nc2ccccc2s1 [Example 2, Method 2, (1S,2S)-2-[(1,3-Benzothiazol-2-yl)carbonyl]cyclopropane-1-carboxylic acid] | 91.8% | 91.8% |  |  | 
8 | O=C(O)[C@H]1C[C@@H]1C(=O)c1cc(Cl)c2nccnc2c1 [Example 2, Method 3, (1S,2S)-2-(8-Chloroquinoxaline-6-carbonyl)cyclopropane-1-carboxylic acid] | 101% | 101% |  |  | 
9 | O=C(O)[C@H]1C[C@@H]1C(=O)c1cccs1 [Example 3, Method 1, (1S,2S)-2-[(Thiophen-2-yl)carbonyl]cyclopropane-1-carboxylic acid] | 80.3% | 80.3% |  |  | 
10 | O=C(O)[C@H]1C[C@@H]1C(=O)c1ccccn1 [Example 3, Method 2, (1S,2S)-2-[(Pyridin-2-yl)carbonyl]cyclopropane-1-carboxylic acid] | 45.6% | 45.6% |  |  | 
11 | O=C(O)[C@H]1C[C@@H]1C(=O)c1cc(Cl)c2ncccc2c1 [Example 3, Method 3, (1S,2S)-2-(8-Chloroquinoline-6-carbonyl)cyclopropane-1-carboxylic acid] | 100% | 100% |  |  | 
